Test results reported in ChEMBL document CHEMBL4184099, “Fragment-based discovery of a potent NAMPT inhibitor” (Bioorg Med Chem Lett, 2018).

How the values were obtained:
[1] = molecular target: T1, Nicotinamide phosphoribosyltransferase (Homo sapiens, UniProt P43490); assay: Inhibition of human full length C-terminal flag/His-tagged NAMPT (1 to 491 residues) expressed in HEK293-6E cells by TR-FRET assay
Target sequence in this assay (P43490 whole entry, the tested form may be a part): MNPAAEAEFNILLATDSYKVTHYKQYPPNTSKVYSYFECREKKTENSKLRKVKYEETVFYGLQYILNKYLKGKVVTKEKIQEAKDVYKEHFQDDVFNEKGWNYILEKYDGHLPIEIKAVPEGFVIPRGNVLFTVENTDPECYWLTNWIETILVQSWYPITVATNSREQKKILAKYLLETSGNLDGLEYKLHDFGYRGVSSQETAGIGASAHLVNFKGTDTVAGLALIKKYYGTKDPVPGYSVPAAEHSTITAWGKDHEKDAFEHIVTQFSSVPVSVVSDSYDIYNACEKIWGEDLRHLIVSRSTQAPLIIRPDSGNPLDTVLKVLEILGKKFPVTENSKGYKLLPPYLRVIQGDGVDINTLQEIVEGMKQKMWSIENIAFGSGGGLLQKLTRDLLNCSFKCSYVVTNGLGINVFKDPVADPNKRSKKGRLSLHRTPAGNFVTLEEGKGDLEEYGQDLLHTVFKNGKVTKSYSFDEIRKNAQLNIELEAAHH

[2] = molecular target: T1, Nicotinamide phosphoribosyltransferase; assay: Inhibition of NAM binding to human full length C-terminal flag/His-tagged NAMPT (1 to 491 residues) at 400 uM by STD-NMR spectroscopic analysis relative to control
Target sequence in this assay (P43490 whole entry, looked up, the tested form may be a part): as the sequence (P43490 whole entry, the tested form may be a part) above

| SMILES | IC50 [1] [µM] | inhibition [2] [%] |
| --- | --- | --- |
| O=C(Cc1ccccc1)Nc1ccc2nc[nH]c2c1 | 90 |  |
| O=C(NCc1ccncc1)Nc1ccc(F)c(F)c1 | 850 | 80 |
| CC(C)CCNC(=O)c1ccc(NC(=O)Nc2ccc3nc[nH]c3c2)cc1 | 0.08 |  |
| O=C1OCCC/C1=C\Nc1ccccc1 | 10 |  |
| Cc1ccc(Cn2nnc3cc(C(N)=O)ccc32)cc1 | 8 | 80 |
| O=C1C2CCC2C(=O)N1CCc1ccccn1 (stereo unspecified) | > 1000 | 80 |
| CCCc1cc(=O)[nH]c(Nc2ccccc2F)n1 | 360 | 80 |
